Patent publication US7250505B1, “Isolation and expression of a disabled protein gene mDab1 and methods” (Fred Hutchinson Cancer Research Center, priority 1997, dated 2007)
Blank lines part the entries; values can stand above or below the compound they belong to. No end group written: not given here.

What was measured:
mDab1 PTB domain = molecular target: T1, mDab1 PTB domain (Mus musculus, UniProt P97318); experiment: Binding of radioactively labeled GST-mDab1 PTB domain fusion protein to synthetic peptides in a grid array on cellulose; conditions: 15 to 17 residue peptides with NPXY motifs on cellulose sheet
T1 construct: the region corresponding to the mDab1 PTB, residues 29 to 197; made in house; host or cells: Escherichia coli strain TG-1
T1 sequence (P97318 29-197): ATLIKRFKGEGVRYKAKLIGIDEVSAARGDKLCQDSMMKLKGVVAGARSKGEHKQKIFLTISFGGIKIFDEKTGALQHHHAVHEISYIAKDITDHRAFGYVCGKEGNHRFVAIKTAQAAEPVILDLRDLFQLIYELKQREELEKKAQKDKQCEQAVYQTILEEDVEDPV
Method: The ability of the mDab1 PTB domain to interact directly with synthetic peptides based on the sequences identified in the two-hybrid screen was tested to identify the optimal sequence for mDab1 PTB domain binding. […] The purified, radioactive fusion protein was then incubated with a sheet of cellulose paper onto which different 15 to 17 residue synthetic peptides had been synthesized in a grid array (Niebuhr, et al., EMBO J. 16:5433-5444 (1997), incorporated herein by reference). Each sheet contained up to 100 different peptide sequences. After incubation, the sheet was washed and exposed to film, and bound PTB domain fusion protein was quantified. […] The mDab1 PTB domain was tested against peptides containing NPXY motifs from APP, the APP relatives APLP1 and APLP2, LRP, the LRP-related LDL receptor, Ship, and known ligands for the Shc and IRS-1 PTB domains, namely the EGF receptor, HER3 receptor, NGF receptor (TrkA), and insulin receptor. The mDab1 PTB domain was also tested against peptide motifs with phosphotyrosine in place of the tyrosine of the NPXY sequence (i.e. NPXpY peptides). The amount of radioactivity associated with each peptide was quantified with a PhosphorImager (Molecular Dynamics), and depicted as a percentage of that which associated with the APP peptide.
To determine which residues in the APP sequence are involved in the interaction with the mDab1 PTB, an array of peptides based on the APP sequence with alanine substituted at each position in turn were synthesized. The ability of each peptide to bind to the PTB domain was compared to wild-type. […] Only the side chains of residues on the amino-terminal side of the NPXY motif appear to influence the strength of the interaction.
To determine the features of the APP peptide that were recognized by the mDab1 PTB domain, all nineteen amino acids, except cysteine, were substituted at several positions. In all cases the mDab1 PTB domain bound better to the wild-type APP sequence than to any altered sequence. Most substitutions of residues Gly-6, Tyr-5, Asn-3, Pro-2 and Tyr-0 inhibited PTB domain binding by greater than 80%. […] For example, the significant binding of the p150 Ship, LRP, and LDL receptor peptides implies that replacement of Tyr-5 with phenylalanine is permitted provided other changes are also made.

mDab1 PTB [1] = molecular target: T2, mDab1 PTB (Mus musculus, UniProt P97318); experiment: GST-mDab1 PTB binding of tyrosine phosphorylated proteins from E13 mouse head lysates in the presence of phosphoamino acid competitors; conditions: competitor in binding buffer (50 mM)
T2 construct: the region corresponding to the mDab1 PTB, residues 29 to 197; made in house; host or cells: Escherichia coli strain TG-1
T2 sequence (P97318 29-197): T1 sequence (P97318 29-197)
Method: Lysates from 293T cells transfected with retroviral vectors encoding mDab555 alone; Src 527F alone; Src527F and mDab555 together; or Src527F and mDab1 98/200F, which is described in more detail below, were either bound to immobilized GST fusions proteins or were immunoprecipitated with anti-mDab1 or preimmune antibodies. Binding assays and analysis were carried out essentially as described for immunoprecipitations with 5 μg of GST fusion protein immobilized on glutathione agarose beads. Phenyl phosphate and phosphoserine were used at 50 mM for competition experiments. After washing, mDab1 bound to the immobilized SH2 domains was detected by immunoblotting. […] The Abl and Csk SH2 domains do form high affinity complexes with other tyrosine phosphorylated molecules however (Sabe et al., Proc. Natl. Acad. Sci. USA 91:3984-3988 (1994); Duyster et al., ibid. (1995)).
To examine whether the mDab1 PTB binds proteins that are tyrosine phosphorylated during neural development, a GST fusion protein containing the mDab1 PTB, a mutant mDab1 PTB in which Arg 56 was changed to Glu (mDab1 56E) or GST alone. was incubated with lysates from E13 mouse heads. Bound proteins were eluted, resolved and immunoblotted with anti-phosphotyrosine antibodies. The mDab1 PTB bound tyrosine phosphorylated proteins of 200, 120, 50-65 and 40 kDa.
To test whether the binding of proteins to the mDab1 PTB is phosphotyrosine dependent, binding experiments were done in the presence of the phosphotyrosine analog phenylphosphate. The assays was conducted as described above and phenylphosphate or phosphoserine were included in the binding buffer to investigate binding specificity. Proteins were eluted and analyzed as described above. […] However the binding of the 50-65 kDa proteins was not affected by either competitor.

mDab1 PTB [2] = molecular target: T2, mDab1 PTB; experiment: Competition of GST-mDab1 PTB binding to LUVs containing PtdIns4,5P2 by inositol phosphates
Method: GST fusion proteins containing the Shc or mDab1 PTB domain were compared for their ability to bind LUVs that contained phosphotidylisositol 4,5 P2 (PtdIns4,5P2), phosphatidylserine (PtdSer) and phosphatidylethanolamine (PtdEth). Methods for the production of LUVs and assays for binding to Shc phosphotyrosine-binding domains can found in Ravichandran, et al., Mol. Cell. Biol. 17:5540-5549 (1997) which is incorporated herein by reference. After the fusion proteins and a GST control were incubated with the LUVs the reactions were centrifuged and the presence of the fusion proteins were detected by SDS PAGE and Western blotting with antibodies to GST as described above. GST-Shc PTB and GST-mDab1 PTB fusion proteins were found in the high speed pellet fraction in the presence of but not in the absence of LUVs. While the GST fusion protein control was found in the high speed supernatant in the presence of absence of the LUVs.
The specificity of mDab1 PTB binding to phospholipids was also determined. For these studies LUVs were prepared containing equal quantities of PtdSer, phosphatidylcholine (PtdCho) and Ptd Eth, and 0 or 5% by weight of PtdIns4P, PtdIns4,5P2, or PdtIns3,4,5P3. This corresponded to approximately 7.5 μM phosphoinositide in the outer leaflet of the lipid bilayer. Detection of binding to the LUVs was determined as described above.
mDab1 PTB binding to LUVs containing phosphoinositides in the presence of various phosphorylated isomers of inositol was also examined to determine whether the binding of mDab1 PTB to phosphoinositides was specific or was the result of a strong affinity for strongly anionic phospholipids. […] Binding was competed with D-Ins1,4,5P3, but not by L-Ins1, 4,5P3.

binding of mDab1 PTB domain to peptide (mDab1 PTB domain): better than the other
Compound: MFENPLY [SEQ ID NO:30]

binding of mDab1 PTB domain to peptide (mDab1 PTB domain): bound
Compound: NFDNPVY [SEQ ID NO:29]

Compound: O=P(O)(O)Oc1ccccc1 [phenylphosphate]
binding of the 50-65 kDa proteins to mDab1 PTB in presence of competitor (mDab1 PTB [1]): not affected
binding of the 120 and 40 kDa phosphotyrosyl proteins to mDab1 PTB in presence of competitor (mDab1 PTB [1]): reduced significantly

binding of mDab1 PTB domain to peptide (mDab1 PTB domain): failed to interact
Compound: IIENPQY [SEQ ID NO:33]

binding of mDab1 PTB domain to peptide (mDab1 PTB domain): bound
Compound: NFTNPVY [SEQ ID NO:28, peptide with the more carboxy-terminal NPXY motif of LRP]

competition of GST-mDab1 PTB binding to LUVs containing PtdIns4,5P2 (mDab1 PTB [2]; competitor at 30 μM): weak competition
competition of GST-mDab1 PTB binding to LUVs containing PtdIns4,5P2 (mDab1 PTB [2]; competitor at 100 μM): competed
Compound: O=P(O)(O)O[C@@H]1[C@H](O)[C@H](O)[C@@H](OP(=O)(O)O)[C@H](OP(=O)(O)O)[C@H]1O [D-Ins1,4,5P3]

binding of mDab1 PTB domain to peptide (mDab1 PTB domain): failed to interact
Compound: NVGNPEY [SEQ ID NO:32]

binding of mDab1 PTB domain to peptide (mDab1 PTB domain): failed to interact
Compound: NSSNPEY [SEQ ID NO:34]

competition of GST-mDab1 PTB binding to LUVs containing PtdIns4,5P2 (mDab1 PTB [2]; competitor at 100 μM): not
Compound: O=P(O)(O)O[C@@H]1[C@@H](O)[C@H](OP(=O)(O)O)[C@@H](OP(=O)(O)O)[C@H](O)[C@@H]1O [L-Ins1, 4,5P3]

binding of the 50-65 kDa proteins to mDab1 PTB in presence of competitor (mDab1 PTB [1]): not affected
binding of the 120 and 40 kDa phosphotyrosyl proteins to mDab1 PTB in presence of competitor (mDab1 PTB [1]): to a less extent
Compound: N[C@@H](COP(=O)(O)O)C(=O)O [phosphoserine]
